In US11976058B2, “Aromatic derivatives, preparation methods, and medical uses thereof” (Bioardis LLC, priority 2019, dated 2024) one finds IC50 data, which are given here for 13 compounds.

pIC50: −log10 of the molar value. Like-named read-outs stand apart in the source and are kept apart here.

Experiment [1] relates to Hep3B cells. Description: Cell-based FGFR4 proliferation assay (CellTiter-Glo). The following applies: incubated with test compound for 3 days, CellTiter-Glo luminescence, read-out: Potency (IC50), Hep3B cell proliferation. As for the experimental part:
Hepatocellular carcinoma cell line Hep3B (ATCC, Cat #HB-8064) were cultured at 37° C., 5% CO2 in ATCC-formulated Eagle's Minimum Essential Medium supplemented with 10% fetal bovine serum; 1% Penicillin-Streptomycin.
(§1) Cell line: Hepatocellular carcinoma cell line Hep3B (ATCC, Cat #HB-8064).
In this assay, Hep3B cells are seeded in 384-well microplates, and after exposure to experimental compounds for […], CellTiter-Glo® Luminescent Cell Viability Assay kit (Promega, Cat #G7572) are used to determine the number of viable cells in the culture based on quantitation of the ATP present, which signals the presence of metabolically active cells. Luminescent signal is proportional to the amount of ATP present. The amount of ATP is directly proportional to the number of cells present in the culture, allowing drug-induced effects on cell proliferation to be measured.
Hep3B cells were plated at a density of 4×10^4/ml cells in a 384-well black/clear microplate with 20 μL per well of MEM Medium (Gibco Cat. #11095-080) supplemented with 10% fetal bovine serum; 1% Penicillin-Streptomycin, and cultured overnight at 37° C., 5% CO2. Various concentrations of the test compound (dissolved in 100% DMSO) were added to the wells of the cell plate. The cells were incubated with the test compound for 3 days at 37° C., 5% CO2. 5 μL of CellTiter-Glo® Reagent was added to each well of the cell plate. The cell plate was incubated for 5 min at 25° C. on a plate shaker (IKA MTS 2/4) at 300 rpm. Luminescence signals were read on a TECAN Spark 10M instrument (TECAN). […] The concentrations and percent inhibition values for a test compound were plotted and the concentration of the compound required to achieve 50% inhibition (IC50) is determined with a four-parameter logistic dose response equation. Dose-response curves were generated using Prism (GraphPad Software, La Jolla, CA, US) to calculate IC50 values for each compound tested.
On the technique in general: In ATP-based viability assays light output follows the ATP content of the culture.

Experiment [2] deals with MAPK phosphorylation in Hep3B cells stimulated with FGF19. As to the kind of experiment: FGFR4 pMAPK AlphaLISA SureFire Ultra assay. The following applies: serum-starved, compound 1 hour, FGF19 100 ng/ml for 4 hours, read-out: Potency (IC50), FGFR4 pMAPK AlphaLISA. The experiment is classed as cell-based.
From the text: as §1
In normal liver, circulating FGF19 drives liver cell proliferation and regulates bile acid production. However aberrant expression of FGF19 in the liver drives HCC tumorigenesis, upregulates MAPK phosphorylation in FGF19-amplified malignant liver cells. AlphaScreen SureFire technology allows the detection of phosphorylated proteins in cellular lysates in a highly sensitive, quantitative assay. In these assays, sandwich antibody complexes, which are only formed in the presence of analyte, are captured by AlphaScreen Donor and Acceptor beads, bringing them into close proximity. The excitation of the Donor bead provokes the release of singlet oxygen molecules that triggers a cascade of energy transfer in the Acceptor beads, resulting in the emission of light at 520-620 nm.
Hep3B cells were plated at a density of 1×10^4/ml cells in a 96-well plate (Corning #3599), with 100 uL per well of MEM Medium (Gibco Cat #11095-080) supplemented with 10% fetal bovine serum; 1% Penicillin-Streptomycin, and cultured overnight at 37° C., 5% CO2. Starve Hep3B cells in serum-free medium (SFM) supplemented with 0.2% BSA and incubate the cells again overnight at 37° C., 5% CO2. Various concentrations of the test compound (prepared in 2x SFM) were added to the wells of the cell plate and then incubated for 1 hour at 37° C., 5% CO2. 50 μL of FGF19 in SFM was added to each well of the cell plate with a final FGF19 concentration of 100 ng/ml, and cells treated with FGF19 were stimulated for 4 hours at 37° C., 5% CO2. 5 μL of freshly prepared Donor Mix and Acceptor Mix were sequentially added to the cell plate, each followed with 1 hour of incubation at 25° C., 5% CO2. Read the cell plate on an Alpha Technology-compatible plate reader at 570 nm AlphaScreen, using standard AlphaLISA settings. The percent (%) inhibition=((ZPE−Alpha-Signal)/(ZPE−HPE))*100% where the meanings of HPE and ZPE are as provided below.
HPE: Hundred Percent Effect, negative control well without FGF19 nor compound. Final concentration of DMSO is 0.1%.
ZPE: Zero Percent Effect, positive control well without compound. Final concentration of FGF19 is 100 ng/mL, DMSO is 0.1%.
The concentrations and percent inhibition values for a test compound were plotted and the concentration of the compound required to achieve 50% inhibition (IC50) was determined with a four-parameter logistic dose response equation. Dose-response curves were generated using Prism (GraphPad Software, La Jolla, CA, US) to calculate IC50 values for each compound tested.

In experiment [3] the target is T1, human FGFR4 (Homo sapiens, UniProt P22455).
T1 construct: human FGFR4 cytoplasmic domain (460-802); GST (N); purchased Carna Biosciences 08-136
As to the kind of experiment: FGFR4 enzymatic assay (HTRF KinEASE-TK). The experiment is classed as biochemical. The following applies: wild-type human FGFR4 cytoplasmic domain (460-802), GST-tag; 60 min preincubation at 25° C.; ATP 200 μM; read-out: Potency (IC50), FGFR4 enzymatic assay. The essentials:
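GST-tagged FGFR4 cytoplasmic domain (460-802) at 0.25 μg/ml, preincubated with compound 60 min at 25 °C in HEPES pH 7.0 buffer, then reacted 40 min at 37 °C with 0.3 μM biotin-TK peptide and 200 μM ATP. HTRF detection (665/612 nm) after 60 min; IC50 by four-parameter logistic fit.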
In general terms: Time-resolved FRET reads energy transfer from a long-lived donor to a nearby acceptor.

T1 sequence (P22455 460-802): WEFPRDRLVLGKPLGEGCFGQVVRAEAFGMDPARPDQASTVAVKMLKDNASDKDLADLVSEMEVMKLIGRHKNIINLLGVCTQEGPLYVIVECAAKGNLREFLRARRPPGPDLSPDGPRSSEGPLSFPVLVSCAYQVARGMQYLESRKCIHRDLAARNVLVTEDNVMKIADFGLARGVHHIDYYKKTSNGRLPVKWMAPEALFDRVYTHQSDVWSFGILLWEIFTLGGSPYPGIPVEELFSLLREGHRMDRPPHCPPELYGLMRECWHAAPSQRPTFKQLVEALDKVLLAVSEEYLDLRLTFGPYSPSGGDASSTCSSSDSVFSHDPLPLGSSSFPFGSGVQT

As for `C=CC(=O)Nc1c[nH]nc1-c1n[nH]c2c1CCC(c1cc(OC)cc(OC)c1F)C2` (single isomer, unassigned) [Compound S15-P4, N-(3-(6-(2-fluoro-3,5-dimethoxyphenyl)-4,5,6,7-tetrahydro-1H-indazol-3-yl)-1H-pyrazol-4-yl)acrylamide], the pIC50 in experiment [1] was 7.00 to 8.00; in experiment [2], above 8.00; in experiment [3], 7.00 to 8.00.

With `[2H]C([2H])([2H])n1ncc(NC(=O)C=C)c1-c1n[nH]c2c1CCC(c1cc(OC)cc(OC)c1F)C2` (single isomer, unassigned) [Compound S16-P4, N-(5-(6-(2-fluoro-3,5-dimethoxyphenyl)-4,5,6,7-tetrahydro-1H-indazol-3-yl)-1-(methyl-d3)-1H-pyrazol-4-yl)acrylamide], the pIC50 in experiment [1] is below 7.00; in experiment [2], 7.00 to 8.00; in experiment [3], 7.00 to 8.00.

As to `C=CC(=O)Nc1ncn(C)c1-c1n[nH]c2c1CCC(c1c(F)c(OC)cc(OC)c1F)C2` (single isomer, unassigned) [Compound S3-P2, N-(5-(6-(2,6-Difluoro-3,5-dimethoxyphenyl)-4,5,6,7-tetrahydro-1H-indazol-3-yl)-1-methyl-1H-imidazol-4-yl) Acrylamide], the pIC50 in experiment [1] was below 7.00; in experiment [2] (Homo sapiens, Hep3B), below 7.00; in experiment [3] it was 7.00 to 8.00.

For the compound `C=CC(=O)Nc1c[nH]nc1-c1n[nH]c2c1CCC(c1c(F)c(OC)cc(OC)c1F)C2` (single isomer, unassigned) [Compound S15-P1, N-(3-(6-(2,6-difluoro-3,5-dimethoxyphenyl)-4,5,6,7-tetrahydro-1H-indazol-3-yl)-1H-pyrazol-4-yl)acrylamide], the pIC50 in experiment [1] (Homo sapiens, Hep3B, 72 h) is above 8.00; in experiment [2] (Homo sapiens, Hep3B) it was above 8.00; in experiment [3], above 8.00.

Regarding `C=CC(=O)Nc1cnn(C(C)C)c1-c1n[nH]c2c1CCC(c1c(F)c(OC)cc(OC)c1F)C2` (single isomer, unassigned) [Compound S17-P1, N-(5-(6-(2,6-difluoro-3,5-dimethoxyphenyl)-4,5,6,7-tetrahydro-1H-indazol-3-yl)-1-isopropyl-1H-pyrazol-4-yl)acrylamide], the pIC50 was below 7.00 in experiment [1]; 7.00 to 8.00 in experiment [2] (Homo sapiens, Hep3B); 7.00 to 8.00 in experiment [3].

For the compound `[2H]C([2H])([2H])n1ncc(NC(=O)C=C)c1-c1n[nH]c2c1CCC(c1c(F)c(OC)cc(OC)c1F)C2` (single isomer, unassigned) [Compound S16-P1, N-(5-(6-(2,6-difluoro-3,5-dimethoxyphenyl)-4,5,6,7-tetrahydro-1H-indazol-3-yl)-1-(methyl-d3)-1H-pyrazol-4-yl)acrylamide], the pIC50 in experiment [1] (Homo sapiens, Hep3B, 72 h) is 7.00 to 8.00; in experiment [2] (Homo sapiens, Hep3B) it was above 8.00; in experiment [3] it was above 8.00.

`[2H]C([2H])([2H])Oc1cc(OC([2H])([2H])[2H])c(F)c(C2CCc3c(-c4c(NC(=O)C=C)cnn4C)n[nH]c3C2)c1F` (single isomer, unassigned) [Compound S8-P1, N-(5-(6-(2,6-difluoro-3,5-bis(methoxy-d3)phenyl)-4,5,6,7-tetrahydro-1H-indazol-3-yl)-1-methyl-1H-pyrazol-4-yl) acrylamide]: the pIC50 is 7.00 to 8.00 in experiment [1] (Homo sapiens, Hep3B, 72 h); above 8.00 in experiment [2] (Homo sapiens, Hep3B); above 8.00 in experiment [3].

As to `C=CC(=O)Nc1cn(C)nc1-c1n[nH]c2c1CCCC(c1cc(OC)cc(OC)c1F)C2` (single isomer, unassigned) [Compound S12-P3, N-(3-(7-(2-fluoro-3,5-dimethoxyphenyl)-1,4,5,6,7,8-hexahydrocyclohepta[c]pyrazol-3-yl)-1-methyl-1H-pyrazol-4-yl) acrylamide], the pIC50 in experiment [1] (Homo sapiens, Hep3B, 72 h) is 7.00 to 8.00; in experiment [2] (Homo sapiens, Hep3B), above 8.00; in experiment [3] it was 7.00 to 8.00.

Take `C=CC(=O)Nc1cnn(C(C)C)c1-c1n[nH]c2c1CCC(c1c(F)c(OC)cc(OC)c1F)C2` (single isomer, unassigned) [Compound S17-P2, N-(5-(6-(2,6-difluoro-3,5-dimethoxyphenyl)-4,5,6,7-tetrahydro-1H-indazol-3-yl)-1-isopropyl-1H-pyrazol-4-yl)acrylamide]: the results for the pIC50 in experiment [1], in experiment [2] and in experiment [3] were 7.00 to 8.00, above 8.00 and 7.00 to 8.00, respectively.

`C=CC(=O)Nc1cn(C)nc1-c1n[nH]c2c1CCC[C@H](c1c(F)c(OC)cc(OC)c1F)C2` (single isomer, unassigned) [Compound S12-P1]: the pIC50 is 7.00 to 8.00 in experiment [1] (Homo sapiens, Hep3B, 72 h); above 8.00 in experiment [2] (Homo sapiens, Hep3B); above 8.00 in experiment [3].

For the compound `C=CC(=O)Nc1cnn(CC)c1-c1n[nH]c2c1CC[C@@H](c1c(F)c(OC)cc(OC)c1F)C2` [Compound S14-P1, (R)—N-(5-(6-(2,6-difluoro-3,5-dimethoxyphenyl)-4,5,6,7-tetrahydro-1H-indazol-3-yl)-1-ethyl-1H-pyrazol-4-yl) acrylamide], the pIC50 is below 7.00 in experiment [1] (Homo sapiens, Hep3B, 72 h); 7.00 to 8.00 in experiment [2] (Homo sapiens, Hep3B); 7.00 to 8.00 in experiment [3].

Take `C=CC(=O)Nc1cn[nH]c1-c1n[nH]c2c1CCCC(c1cc(OC)cc(OC)c1F)C2` (single isomer, unassigned) [Compound S11-P4, N-(5-(7-(2-fluoro-3,5-dimethoxyphenyl)-1,4,5,6,7,8-hexahydrocyclohepta[c]pyrazol-3-yl)-1H-pyrazol-4-yl)acrylamide]: the pIC50 in experiment [1], in experiment [2] and in experiment [3] was above 8.00 in each case.

Consider `C=CC(=O)Nc1cn[nH]c1-c1n[nH]c2c1CCC[C@@H](c1c(F)c(OC)cc(OC)c1F)C2` [Compound S11-P2, (R)—N-(5-(7-(2,6-difluoro-3,5-dimethoxyphenyl)-1,4,5,6,7,8-hexahydrocyclohepta[c]pyrazol-3-yl)-1H-pyrazol-4-yl)acrylamide], for which the pIC50 in experiment [1], in experiment [2] and in experiment [3] was above 8.00 in each case.
